ChEMBL document CHEMBL4351028, “Benzoyl indoles with metabolic stability as reversal agents for ABCG2-mediated multidrug resistance” (Eur J Med Chem, 2019)
Calls of active or inactive are those of the source. The rule behind the calls is not given here.

What was measured:
[1] = target: T1, ABCG2 (Homo sapiens, UniProt Q9UNQ0); experiment: Competitive substrate activity at ABCG2 (unknown origin) expressed in High Five insect cell vesicle membrane assessed as stimulation of ATPase activity at 0.75 uM by PREDEASY ATPase assay relative to control; settings: High Five insect cell vesicle membranes expressing ABCG2
T1 sequence (Q9UNQ0 whole entry): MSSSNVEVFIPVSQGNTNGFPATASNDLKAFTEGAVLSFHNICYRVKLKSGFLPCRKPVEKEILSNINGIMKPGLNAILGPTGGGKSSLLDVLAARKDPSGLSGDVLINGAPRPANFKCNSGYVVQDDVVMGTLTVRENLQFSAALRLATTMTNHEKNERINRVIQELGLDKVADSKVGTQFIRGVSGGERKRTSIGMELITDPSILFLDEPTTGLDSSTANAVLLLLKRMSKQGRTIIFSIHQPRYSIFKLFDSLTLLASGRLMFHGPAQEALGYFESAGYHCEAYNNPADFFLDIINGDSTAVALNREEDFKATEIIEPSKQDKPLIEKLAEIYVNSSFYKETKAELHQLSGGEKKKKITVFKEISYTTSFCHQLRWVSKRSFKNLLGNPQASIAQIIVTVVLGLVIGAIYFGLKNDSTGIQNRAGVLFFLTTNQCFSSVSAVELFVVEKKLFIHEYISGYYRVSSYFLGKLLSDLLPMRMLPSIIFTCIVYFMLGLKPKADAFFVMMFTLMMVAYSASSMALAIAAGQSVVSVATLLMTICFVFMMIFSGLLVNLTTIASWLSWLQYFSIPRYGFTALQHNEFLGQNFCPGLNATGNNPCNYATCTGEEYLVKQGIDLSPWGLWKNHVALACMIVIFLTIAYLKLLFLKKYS

[2] = Cytotoxicity against HEK293 cells expressing wild type ABCG2-482-R2 assessed as inhibition of cell viability at 5 to 25 uM incubated for 2 hrs by MTT assay relative to control; format: ADME, cell-based; settings: human, read-out: INH
[3] = target: T2, Broad substrate specificity ATP-binding cassette transporter ABCG2 (Homo sapiens, UniProt Q9UNQ0); experiment: Reversal of ABCG2-mediated multidrug resistance in human NCI-H460/MX20 cells assessed as potentiation of mitoxantrone-induced cytotoxicity by measuring inhibition of cell proliferation pretreated for 2 hrs followed by mitoxantrone addition and measured after 44 hrs by MTT assay; format: cell-based
T2 sequence (Q9UNQ0 whole entry): T1 sequence (Q9UNQ0 whole entry)

[4] = Cytotoxicity against human NCI-H460 cells assessed as inhibition of cell viability at 5 to 25 uM incubated for 2 hrs by MTT assay relative to control; format: cell-based; settings: read-out: INH
[5] = target: T2, Broad substrate specificity ATP-binding cassette transporter ABCG2; experiment: Reversal of ABCG2-mediated multidrug resistance in human S1-M1-80 cells assessed as potentiation of doxorubicin-induced cytotoxicity at 5 uM pretreated with compound for 2 hrs followed by doxorubicin challenge for 44 hrs by MTT assay; format: cell-based
[6] = organism: Homo sapiens; experiment: Effect on ABCG2 expression in human NCI-H460/MX20 cells at 5 uM incubated up to 72 hrs by Western blot analysis; format: functional, cell-based
[7] = Cytotoxicity against HEK293 cells transfected with pcDNA3.1 assessed as inhibition of cell viability at 5 to 25 uM incubated for 2 by MTT assay relative to control; format: cell-based; settings: human, read-out: INH
[8] = Cytotoxicity against human S1-M1-80 cells assessed as inhibition of cell viability at 5 to 25 uM incubated for 2 hrs by MTT assay relative to control; format: cell-based; settings: read-out: INH
[9] = tested on: NCI-H460; experiment: Cytotoxicity against human NCI-H460 cells assessed as inhibition of cell viability incubated for 2 hrs by MTT assay; format: cell-based; settings: NCI-H460, 2 h, read-out: IC50
[10] = organism: Homo sapiens; experiment: Effect on ABCG2 internalization in human NCI-H460/MX20 cells at 5 uM incubated for 72 hrs by immunofluorescence analysis; format: functional, cell-based
[11] = Cytotoxicity against human NCI-H460/MX20 cells assessed as inhibition of cell viability incubated for 2 hrs by MTT assay; format: cell-based; settings: NCI-H460/MX20, 2 h
[12] = target: T2, Broad substrate specificity ATP-binding cassette transporter ABCG2; experiment: Inhibition of ABCG2-mediated mitoxantrone efflux in human NCI-H460/MX20 cells assessed as increase in accumulation of [3H]MX at 5 uM incubated for 2 hrs followed by [3H]MX addition further incubated for 2 hrs by liquid scintillation counter relative to control; format: cell-based
[13] = tested on: HEK293; experiment: Reversal of ABCG2 482-T7 mutant (unknown origin) expressed in HEK293 cells-mediated multidrug resistance assessed as potentiation of mitoxantrone-induced cytotoxicity at 2.5 to 5 uM pretreated for 2 hrs followed by mitoxantrone addition and measured after 44 hrs by MTT assay; format: cell-based; settings: Homo sapiens
[14] = tested on: HEK293; experiment: Reversal of ABCG2 482-G2 mutant (unknown origin) expressed in HEK293 cells-mediated multidrug resistance assessed as potentiation of mitoxantrone-induced cytotoxicity at 2.5 to 5 uM pretreated for 2 hrs followed by mitoxantrone addition and measured after 44 hrs by MTT assay; format: cell-based; settings: Homo sapiens
[15] = Cytotoxicity against human S1 cells assessed as inhibition of cell viability at 5 to 25 uM incubated for 2 hrs by MTT assay relative to control; format: cell-based; settings: read-out: INH
[16] = Cytotoxicity against human NCI-H460/MX20 cells assessed as inhibition of cell viability at 5 to 25 uM incubated for 2 hrs by MTT assay relative to control; format: cell-based; settings: read-out: INH
[17] = tested on: NCI-H460; experiment: Cytotoxicity against human NCI-H460 cells assessed as concentration that causes inhibition of cell viability by <=20% incubated for 24 hrs by MTT assay; format: cell-based; settings: nci-h460, 24 h
[18] = target: T2, Broad substrate specificity ATP-binding cassette transporter ABCG2; experiment: Reversal of ABCG2-mediated multidrug resistance in human S1-M1-80 cells assessed as potentiation of mitoxantrone-induced cytotoxicity at 5 uM pretreated with compound for 2 hrs followed by mitoxantrone challenge for 44 hrs by MTT assay; format: cell-based
[19] = target: T2, Broad substrate specificity ATP-binding cassette transporter ABCG2; experiment: Reversal of ABCG2-mediated multidrug resistance in human NCI-H460/MX20 cells assessed as potentiation of mitoxantrone-induced cytotoxicity at 2.5 to 5 uM pretreated with compound for 2 hrs followed by mitoxantrone challenge for 44 hrs by MTT assay; format: cell-based
[20] = target: T2, Broad substrate specificity ATP-binding cassette transporter ABCG2; experiment: Reversal of ABCG2 (unknown origin) expressed in HEK293 cells-mediated multidrug resistance assessed as potentiation of mitoxantrone-induced cytotoxicity at 2.5 to 5 uM pretreated for 2 hrs followed by mitoxantrone addition and measured after 44 hrs by MTT assay; format: cell-based; settings: hek293, 44 h
[21] = Cytotoxicity against human NCI-H460/MX20 cells assessed as concentration that causes inhibition of cell viability by <=20% incubated for 24 hrs by MTT assay; format: cell-based
[22] = Cytotoxicity against HEK293 cells harbouring ABCG2-482-G2 mutant assessed as inhibition of cell viability at 5 to 25 uM incubated for 2 hrs by MTT assay relative to control; format: ADME, cell-based; settings: human, read-out: INH
[23] = Cytotoxicity against HEK293 cells harbouring ABCG2-482-T7 mutant assessed as inhibition of cell viability at 5 to 25 uM incubated for 2 hrs by MTT assay relative to control; format: ADME, cell-based; settings: human, read-out: INH
[24] = target: T2, Broad substrate specificity ATP-binding cassette transporter ABCG2; experiment: Competitive substrate activity at ABCG2 (unknown origin) expressed in High Five insect cell vesicle membrane assessed as stimulation of ATPase activity by PREDEASY ATPase assay
[25] = target: T2, Broad substrate specificity ATP-binding cassette transporter ABCG2; experiment: Reversal of ABCG2-mediated multidrug resistance in human NCI-H460/MX20 cells assessed as potentiation of mitoxantrone-induced cytotoxicity by measuring inhibition of cell proliferation at 10 uM pretreated for 2 hrs followed by mitoxantrone addition and measured after 44 hrs by MTT assay (reference value: 24 +/- 3%); format: cell-based
[26] = Metabolic stability in human liver microsomes assessed as compound remaining at 100 uM incubated for 1 hr by HPLC analysis; format: ADME, Microsome; settings: read-out: Stability
[27] = target: T2, Broad substrate specificity ATP-binding cassette transporter ABCG2; experiment: Competitive substrate activity at ABCG2 (unknown origin) expressed in High Five insect cell vesicle membrane assessed as stimulation of ATPase activity up to 40 uM by PREDEASY ATPase assay relative to control
[28] = target: T2, Broad substrate specificity ATP-binding cassette transporter ABCG2; experiment: Reversal of ABCG2-mediated multidrug resistance in human NCI-H460/MX20 cells assessed as cisplatin-induced cytotoxicity at 5 uM pretreated with compound for 2 hrs followed by cisplatin challenge for 44 hrs by MTT assay; format: cell-based

Question: Which Emax at 0.75 µM [1] does the source give for `COc1ccc(C(=O)c2c[nH]c3ccc(OC)cc23)cc1` here?
Answer: The Emax at 0.75 µM was 50%.

Question: And the cytotoxicity at 2 h, up to 25 µM [2]?
Answer: Its cytotoxicity at 2 h, up to 25 µM is less than 20%.

Question: And the “inhibition (INH)” value [3]?
Answer: Its value is “Dose-dependent effect”.

Question: And the cytotoxicity at 2 h, up to 25 µM [4]?
Answer: The cytotoxicity at 2 h, up to 25 µM was less than 20%.

Question: And the Activity [5]?
Answer: Its Activity is “Active”.

Question: What about the Activity [6] of the same molecule?
Answer: The Activity was “inactive”.

Question: What about the cytotoxicity at up to 25 µM [7] of the same molecule?
Answer: The cytotoxicity at up to 25 µM was less than 20%.

Question: And the cytotoxicity at 2 h, up to 25 µM [8]?
Answer: The cytotoxicity at 2 h, up to 25 µM was less than 20%.

Question: And the IC50 [9]?
Answer: Its IC50 is greater than 100 µM.

Question: What about the Activity [10] of the same molecule?
Answer: The Activity was “inactive”.

Question: And the IC50 [11]?
Answer: Its IC50 is 66.9 µM.

Question: What about the “fold change (FC)” value [12] of the same molecule?
Answer: Its value is 2.7.

Question: What about the Activity [13] of the same molecule?
Answer: The Activity was “Active”.

Question: And the Activity [14]?
Answer: The Activity was “Active”.

Question: What about the cytotoxicity at 2 h, up to 25 µM [15] of the same molecule?
Answer: Its cytotoxicity at 2 h, up to 25 µM is less than 20%.

Question: And the cytotoxicity at 2 h, up to 25 µM [16]?
Answer: The cytotoxicity at 2 h, up to 25 µM was less than 20%.

Question: What about the Activity [17] of the same molecule?
Answer: The Activity was 10 µM.

Question: And the Activity [18]?
Answer: Its Activity is “Active”.

Question: And the Activity [19]?
Answer: Its Activity is “Active”.

Question: What about the Activity [20] of the same molecule?
Answer: Its Activity is “Active”.

Question: What about the Activity [21] of the same molecule?
Answer: Its Activity is 10 µM.

Question: And the cytotoxicity at 2 h, up to 25 µM [22]?
Answer: Its cytotoxicity at 2 h, up to 25 µM is less than 20%.

Question: And the cytotoxicity at 2 h, up to 25 µM [23]?
Answer: The cytotoxicity at 2 h, up to 25 µM was less than 20%.

Question: What about the Activity [24] of the same molecule?
Answer: The Activity was “Dose-dependent effect”.

Question: What about the inhibition at 10 µM [25] of the same molecule?
Answer: The inhibition at 10 µM was greater than 87%.

Question: What about the remaining at 1 h, 100 µM [26] of the same molecule?
Answer: Its remaining at 1 h, 100 µM is 78%.

Question: And the “fold change (FC)” value [27]?
Answer: The value was 2.03.

Question: And the Activity [28]?
Answer: The Activity was “Not Active”.
